Results taken from patent US8952024B2, “Herbicidal pyrimidone derivatives” (E I du Pont de Nemours and Company, priority 2009, dated 2015).
Like-named read-outs stand apart in the source and are kept apart here.

Tests used:
Format in all cases: in vivo
[1] = system: wheat (Triticum aestivum); assay: Test B pre-/postemergence plant response; conditions: for plant injury at 31 g/ha: 31 g ai/ha; for plant injury at 62 g/ha: 62 g ai/ha; for plant injury at 125 g/ha: 125 g ai/ha
Method in brief: (§1)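 Seeds were sown in loam soil/sand blend and treated preemergence with compound in non-phytotoxic solvent mixture containing surfactant; postemergence sprays, same formulation, went onto plants 2 to 18 cm (1- to 4-leaf stage) in peat-based planting medium. Greenhouse 13 to 15 days, then visual rating versus untreated controls, 0 (no effect) to 100 (complete control).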

[2] = system: woolly cupgrass (Eriochloa villosa); assay: Test B pre-/postemergence plant response; conditions: for pest or weed control at 31 g/ha: 31 g ai/ha; for pest or weed control at 62 g/ha: 62 g ai/ha; for pest or weed control at 125 g/ha: 125 g ai/ha
Method in brief: as §1

[3] = system: yellow nutsedge (Cyperus esculentus); assay: Test B pre-/postemergence plant response; conditions: for pest or weed control at 31 g/ha: 31 g ai/ha; for pest or weed control at 62 g/ha: 62 g ai/ha; for pest or weed control at 125 g/ha: 125 g ai/ha
Method in brief: as §1

[4] = system: barnyardgrass (Echinochloa crus-galli); assay: Test B flooded paddy test
Method in brief: (§2)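 Visual scores run from 0 (no effect) to 100 (complete control), assigned by comparison with controls 13 to 15 days after treatment. Test compounds went straight into water standing 3 cm above the soil, around plants at the 2-leaf stage kept in a greenhouse.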

[5] = system: ducksalad (Heteranthera limosa); assay: Test B flooded paddy test
Method in brief: as §2

rice (Oryza sativa) = assay: Test B flooded paddy test
Method in brief: as §2

[6] = system: umbrella sedge (Cyperus difformis); assay: Test B flooded paddy test
Method in brief: as §2

[7] = Preemergence, 250 g ai/ha, 0 to 100 scale
[8] = Triticum aestivum, pre-emergence, Preemergence, scale 0 to 100 (0 no effect, 100 complete control), read-out: Plant response rating, Wheat
[9] = Eriochloa villosa, pre-emergence, Preemergence, scale 0 to 100 (0 no effect, 100 complete control), read-out: Plant response rating, Cupgrass, Woolly
[10] = Cyperus, pre-emergence, Preemergence, scale 0 to 100 (0 no effect, 100 complete control), read-out: Plant response rating, Nutsedge, Yellow
[11] = Flood, 31 g ai/ha, scale 0 to 100 (0 no effect, 100 complete control)

COCCn1c(-c2cc(F)cc(F)c2)ncc(C(=O)C2=C(O)C3CCC(C3)C2=O)c1=O (stereo not shown) [Compound 243, 2-(3,5-difluorophenyl)-5-[(2-hydroxy-4-oxobicyclo[3.2.1]oct-2-en-3-yl)carbonyl]-3-(2-methoxyethyl)-4(3H)-pyrimidinone]
Wheat plant response rating [1, 7]: 70 | plant injury at 31 g/ha ([1]; Triticum aestivum, post-emergence, Postemergence, 0 to 100 scale (0 no effect, 100 complete control), read-out: Plant response rating, Wheat): 85% | plant injury at 62 g/ha ([1]; Triticum aestivum, post-emergence, Postemergence, scale 0 to 100 (0 no effect, 100 complete control), read-out: Plant response rating, Wheat): 95% | plant injury at 125 g/ha ([1]; Triticum aestivum, post-emergence, Postemergence, scale 0 (no effect) to 100 (complete control), 13 to 15 days, read-out: Plant response rating, Wheat): 95% | plant injury at 250 g/ha ([1]; Triticum aestivum, post-emergence, Postemergence, 250 g ai/ha, scale 0 to 100 (0 no effect, 100 complete control), 13 to 15 days, read-out: Plant response rating, Wheat): 100% | plant injury at 31 g/ha [1, 8]: 0% | plant injury at 62 g/ha [1, 8]: 40% | plant injury at 125 g/ha ([1]; Triticum aestivum, pre-emergence, Preemergence, scale 0 to 100, 0 no effect, 100 complete control, read-out: Plant response rating, Wheat): 70% | pest or weed control at 31 g/ha ([2]; Eriochloa villosa, post-emergence, Postemergence, 0 to 100 scale (0 no effect, 100 complete control), read-out: Plant response rating, Cupgrass, Woolly): 95% | pest or weed control at 62 g/ha ([2]; Eriochloa villosa, post-emergence, Postemergence, scale 0 to 100 (0 no effect, 100 complete control), read-out: Plant response rating, Cupgrass, Woolly): 95% | pest or weed control at 125 g/ha ([2]; Eriochloa villosa, post-emergence, Postemergence, scale 0 (no effect) to 100 (complete control), 13 to 15 days, read-out: Plant response rating, Cupgrass, Woolly): 100% | pest or weed control at 250 g/ha ([2]; Eriochloa villosa, post-emergence, Postemergence, 250 g ai/ha, scale 0 to 100 (0 no effect, 100 complete control), 13 to 15 days, read-out: Plant response rating, Cupgrass, Woolly): 100% | pest or weed control at 31 g/ha [2, 9]: 75% | pest or weed control at 62 g/ha [2, 9]: 95% | pest or weed control at 125 g/ha ([2]; Eriochloa villosa, pre-emergence, Preemergence, scale 0 to 100, 0 no effect, 100 complete control, read-out: Plant response rating, Cupgrass, Woolly): 95% | Cupgrass, Woolly plant response rating [2, 7]: 100 | pest or weed control at 31 g/ha ([3]; Cyperus, post-emergence, Postemergence, 0 to 100 scale (0 no effect, 100 complete control), read-out: Plant response rating, Nutsedge, Yellow): 65% | pest or weed control at 62 g/ha ([3]; Cyperus, post-emergence, Postemergence, scale 0 to 100 (0 no effect, 100 complete control), read-out: Plant response rating, Nutsedge, Yellow): 65% | pest or weed control at 125 g/ha ([3]; Cyperus, post-emergence, Postemergence, scale 0 (no effect) to 100 (complete control), 13 to 15 days, read-out: Plant response rating, Nutsedge, Yellow): 70% | pest or weed control at 250 g/ha ([3]; Cyperus, post-emergence, Postemergence, 250 g ai/ha, scale 0 to 100 (0 no effect, 100 complete control), 13 to 15 days, read-out: Plant response rating, Nutsedge, Yellow): 85% | pest or weed control at 31 g/ha [3, 10]: 65% | pest or weed control at 62 g/ha [3, 10]: 80% | pest or weed control at 125 g/ha ([3]; Cyperus, pre-emergence, Preemergence, scale 0 to 100, 0 no effect, 100 complete control, read-out: Plant response rating, Nutsedge, Yellow): 90% | Nutsedge, Yellow plant response rating [3, 7]: 95 | pest or weed control at 250 g/ha ([4]; Echinochloa crus-galli, 360 h, 250 g ai/ha, flooded paddy test, visual rating on 0 to 100 scale (0 no effect, 100 complete control) after 13 to 15 days, read-out: Plant response rating, Flood, Barnyardgrass): 85% | pest or weed control at 62 g/ha ([4]; Echinochloa crus-galli, 360 h, Flood (flooded paddy test), 62 g ai/ha, scale of 0 to 100 where 0 is no effect and 100 is complete control, 13 to 15 days, read-out: Plant response rating, Barnyardgrass): 30% | pest or weed control at 125 g/ha ([4]; Echinochloa crus-galli, 360 h, Flood (flooded paddy test), 125 g ai/ha, scale 0 to 100, 0 is no effect, 100 is complete control, 13 to 15 days, read-out: Plant response rating, Barnyardgrass): 75% | Barnyardgrass plant response rating [4, 11]: 0 | Ducksalad plant response rating [5, 11]: 0 | pest or weed control at 250 g/ha ([5]; Heteranthera limosa, 360 h, 250 g ai/ha, flooded paddy test, visual rating on 0 to 100 scale (0 no effect, 100 complete control) after 13 to 15 days, read-out: Plant response rating, Flood, Ducksalad): 100% | pest or weed control at 62 g/ha ([5]; Heteranthera limosa, 360 h, Flood (flooded paddy test), 62 g ai/ha, scale of 0 to 100 where 0 is no effect and 100 is complete control, 13 to 15 days, read-out: Plant response rating, Ducksalad): 85% | pest or weed control at 125 g/ha ([5]; Heteranthera limosa, 360 h, Flood (flooded paddy test), 125 g ai/ha, scale 0 to 100, 0 is no effect, 100 is complete control, 13 to 15 days, read-out: Plant response rating, Ducksalad): 100% | Rice plant response rating (rice (Oryza sativa); [11]): 45 | plant injury at 250 g/ha (rice (Oryza sativa); Oryza sativa, 250 g ai/ha, flooded paddy test, visual rating on 0 to 100 scale (0 no effect, 100 complete control) after 13 to 15 days, read-out: Plant response rating, Flood, Rice): 75% | plant injury at 62 g/ha (rice (Oryza sativa); Oryza sativa, Flood (flooded paddy test), 62 g ai/ha, scale of 0 to 100 where 0 is no effect and 100 is complete control, 13 to 15 days, read-out: Plant response rating, Rice): 60% | plant injury at 125 g/ha (rice (Oryza sativa); Oryza sativa, Flood (flooded paddy test), 125 g ai/ha, scale 0 to 100, 0 is no effect, 100 is complete control, 13 to 15 days, read-out: Plant response rating, Rice): 95% | pest or weed control at 250 g/ha ([6]; Cyperus difformis, 360 h, 250 g ai/ha, flooded paddy test, visual rating on 0 to 100 scale (0 no effect, 100 complete control) after 13 to 15 days, read-out: Plant response rating, Flood, Sedge, Umbrella): 100% | pest or weed control at 62 g/ha ([6]; Cyperus difformis, 360 h, Flood (flooded paddy test), 62 g ai/ha, scale of 0 to 100 where 0 is no effect and 100 is complete control, 13 to 15 days, read-out: Plant response rating, Sedge, Umbrella): 90% | pest or weed control at 125 g/ha ([6]; Cyperus difformis, 360 h, Flood (flooded paddy test), 125 g ai/ha, scale 0 to 100, 0 is no effect, 100 is complete control, 13 to 15 days, read-out: Plant response rating, Sedge, Umbrella): 100% | Sedge, Umbrella plant response rating [6, 11]: 0
